PMC7265447, “Ultra-rapid glutathionylation of chymotrypsinogen in its molten globule-like conformation: A comparison to archaeal proteins” (Scientific Reports, 2020)

Experiments:
[1] = target: T1, reduced α-chymotrypsinogen A (rChTg) (Bos taurus, UniProt P00766); test: Cys-DNB adduct absorbance at […] nm; type: binding; details: pH 5.0, 0.28 M urea, 25 °C; reduced protein; covalent; average of 10 -SH
[2] = target: T2, reduced Bacterioferritin Comigratory Protein 1 (rBcp1) (Saccharolobus solfataricus, UniProt Q97WP9); test: Cys-DNB adduct absorbance at […] nm; type: binding; details: pH 7.4, 0.12 M urea, 25 °C, covalent, 1 -SH/mol
T2 construct: gene bcp-1; recombinant in E. coli BL21(DE3)-RIL (pET30Bcp1), HisTrap purified, 18 kDa band
T2 sequence (Q97WP9 entry or part of it): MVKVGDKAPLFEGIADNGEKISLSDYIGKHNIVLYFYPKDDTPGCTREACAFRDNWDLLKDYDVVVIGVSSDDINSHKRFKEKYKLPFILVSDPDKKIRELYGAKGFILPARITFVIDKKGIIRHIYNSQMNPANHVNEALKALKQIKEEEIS

[3] = target: T3, reduced Protein Disulphide Oxidoreductase (rSsPDO) (Saccharolobus solfataricus, UniProt Q980T5); test: Cys-DNB adduct absorbance at […] nm; type: binding; details: pH 7.4, 0.4 M urea, 25 °C, covalent, 3 -SH/mol
T3 construct: gene SSO0192; recombinant in E. coli, HisTrap and Resource Q purified, about 27 kDa band
T3 sequence (Q980T5 1-233): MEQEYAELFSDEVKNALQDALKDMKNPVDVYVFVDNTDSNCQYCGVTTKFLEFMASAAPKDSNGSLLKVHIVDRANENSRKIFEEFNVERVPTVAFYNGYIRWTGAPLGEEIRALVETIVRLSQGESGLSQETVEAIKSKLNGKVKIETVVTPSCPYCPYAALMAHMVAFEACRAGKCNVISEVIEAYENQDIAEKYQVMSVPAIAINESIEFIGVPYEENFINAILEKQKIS

[4] = target: T1, reduced α-chymotrypsinogen A (rChTg); test: thiol loss, DTNB titration; type: binding; details: pH 5.0, 0.2 M urea, 25 °C; reduced protein; covalent; 8 -SH/mol
From the text: thiol loss, DTNB titration on reduced α-chymotrypsinogen A (rChTg)

[5] = target: T3, reduced Protein Disulphide Oxidoreductase (rSsPDO); test: loss of reactive Cys, DTNB titration; type: binding; details: pH 7.4, 0.4 M urea, 25 °C, covalent, 2 -SH/mol
From the text: loss of reactive Cys, DTNB titration on reduced Protein Disulphide Oxidoreductase (rSsPDO)

[6] = target: T2, reduced Bacterioferritin Comigratory Protein 1 (rBcp1); test: loss of reactive Cys, DTNB titration; type: binding; details: pH 7.4, 0.2 M urea, 25 °C, covalent, 1 -SH/mol
From the text: loss of reactive Cys, DTNB titration on reduced Bacterioferritin Comigratory Protein 1 (rBcp1)

[7] = target: Cys45 (UniProt position 45, DDTPGCTREAS); test: chemical modification; details: 25 °C; 20 mM Britton-Robinson buffers; reduced, molten globule-like conformation in 0.2 M urea; 2.6 µM protein
[8] = target: T1, reduced α-chymotrypsinogen A (rChTg); test: Cys-NBD adduct absorbance at […] nm; type: binding; details: pH 5.0, 0.28 M urea, 25 °C; reduced protein; covalent; average of 10 -SH
[9] = target: T2, reduced Bacterioferritin Comigratory Protein 1 (rBcp1); test: Cys-NBD adduct absorbance at […] nm; type: binding; details: pH 7.4, 0.12 M urea, 25 °C, covalent, 1 -SH/mol
[10] = target: T3, reduced Protein Disulphide Oxidoreductase (rSsPDO); test: Cys-NBD adduct absorbance at […] nm; type: binding; details: pH 7.4, 0.4 M urea, 25 °C, covalent, 2 -SH/mol
[11] = target: Cys50 (UniProt position 50, STREACAFRDN); test: chemical modification; details: 25 °C; 20 mM Britton-Robinson buffers; reduced, molten globule-like conformation in 0.2 M urea; 2.6 µM protein

With O=[N+]([O-])c1ccc(Cl)c([N+](=O)[O-])c1 [CDNB, 1-chloro-2,4-dinitrobenzene] the “Reduced ChTg / k (M^-1 s^-1) (-SH/mol ChTg)” value (shortened to “Reduced ChTg / k”) [1] was 0.19 ± 0.01 M⁻¹ s⁻¹, the “Reduced Bcp1 / k (M^-1 s^-1) (-SH/mole Bcp1)” value (“Reduced Bcp1 / k” below) [2] was 0.55 ± 0.03 M⁻¹ s⁻¹ and the “Reduced SsPDO / k (M^-1 s^-1) (-SH/mole SsPDO)” value (from here on “Reduced SsPDO / k”) [3] was 1.6 ± 0.1 M⁻¹ s⁻¹.
With N[C@@H](CSSC[C@H](N)C(=O)O)C(=O)O [cystine] the “Reduced ChTg / k” value [4] was 0.56 ± 0.02 M⁻¹ s⁻¹, the “Reduced SsPDO / k” value [5] was 10 ± 2 M⁻¹ s⁻¹ and the “Reduced Bcp1 / k” value [6] was 115 ± 10 M⁻¹ s⁻¹.
“Bacterioferritin comigratory protein 1 (Bcp1) C50S mutant, reduced (rC50S) (Sulfolobus solfataricus (Saccharolobus solfataricus); C50S)” showed a pKa [7] of 7.9 ± 0.1.
In the case of O=[N+]([O-])c1ccc(Cl)c2nonc12 [NBD-Cl, 4-chloro-7-nitrobenzofurazan], the “Reduced ChTg / k” value [8] is reported as 12.6 ± 0.5 M⁻¹ s⁻¹, the “Reduced Bcp1 / k” value [9] is reported as 27 ± 3 M⁻¹ s⁻¹ and the “Reduced SsPDO / k” value [10] is reported as 72 ± 3 M⁻¹ s⁻¹.
For N[C@@H](CCSSCC[C@H](N)C(=O)O)C(=O)O [homocystine], the “Reduced SsPDO / k” value [5] was 6 ± 1 M⁻¹ s⁻¹ and the “Reduced Bcp1 / k” value [6] was 15 ± 1 M⁻¹ s⁻¹.
With NCCSSCCN [cystamine] the “Reduced SsPDO / k” value [5] was 20 ± 2 M⁻¹ s⁻¹ and the “Reduced Bcp1 / k” value [6] was 33 ± 3 M⁻¹ s⁻¹.
Work on “Bacterioferritin comigratory protein 1 (Bcp1) C45S mutant, reduced (rC45S) (Sulfolobus solfataricus (Saccharolobus solfataricus); C45S)” yielded a pKa [11] of 7.6 ± 0.1.
